From patent US6481154B1, “Method of large-scale propagation of trees of genus Swietenia” (Sumitomo Forestry Co., Ltd., priority 2000, dated 2002)

What was measured:
Assay type in all cases: cell-based
[1] = system: single shoots of Swietenia macrophylla; experiment: Rooting of single shoots on modified B5 rooting medium
Method: A large number of shoots obtained in (4) are cut to single shoots, which were then transplanted to a rooting medium. […] Culturing temperature was 26±2° C. under illumination of fluorescent lamps for 16 hours per day (3,000 to 9,000 Lux).

[2] = system: single shoots of Swietenia macrophylla; experiment: Rooting conditions (3): modified MS, then modified B5, then modified MS, one month each; details: for Rooting rate (%) For first one month / Rooting rate (%) For second one month / Rooting rate (%) For third one month / Withering rate (%) For first one month / Withering rate (%) For second one month / Withering rate (%) For third one month: rooting conditions (3)
Method: (§1) A large number of shoots obtained in (4) were cut to single shoots which were cultured in the following procedures:
(3) The single shoots were cultured on a modified MS medium containing 0 to 10.0 mg/l of IBA for one month, then on a modified B5 medium containing 0 to 10.0 mg/l of IBA for one month and further on a modified MS medium containing 0 to 10.0 mg/l of IBA for one month.
(§2) All the above (1)-(4) cultures were conducted under conditions wherein a temperature was 26±2° C., a humidity was 60 to 90% and a light intensity was 3,000 to 9,000 Lux. Further, all the modified media in the above (1)-(4) contained 2.8 g/l of gelright.

[3] = system: single shoots of Swietenia macrophylla; experiment: Rooting conditions (2): modified MS medium for 3 months
Method: as §1
(2) The single shoots were cultured on a modified MS medium containing 0 to 10.0 mg/l of IBA for 3 months, while transplanting the shoots to a fresh medium of the same composition every month.
as §2

Structure (SMILES): O=C(O)CCCc1c[nH]c2ccccc12 [IBA, 3-indole butyric acid]
- effectiveness for rooting ([1]; 2.5 mg/l of IBA): effective
- single shoots rooted ([1]; 1.0 to 5.0 mg/l of IBA, one to two months after the start of culturing): 18.5%
- Number of rooted single shoots ([1]; IBA 1.0 mg/l): 1/27
- Number of rooted single shoots ([1]; IBA 2.0 mg/l): 2/30
- Number of rooted single shoots ([1]; IBA 2.5 mg/l): 5/27
- Number of rooted single shoots ([1]; IBA 3.0 mg/l): 0/26
- Number of rooted single shoots ([1]; IBA 4.0 mg/l): 1/25
- Number of rooted single shoots ([1]; IBA 5.0 mg/l): 0/26
- Number of rooted single shoots ([1]; IBA 10.0 mg/l): 0/26
- effectiveness versus continuous culture on a single kind of medium ([2]; 2.5 mg/l of IBA, modified MS, modified B5, modified MS, one month each): more effective
- effectiveness for rooting ([2]; 2.5 mg/l of IBA, procedure (3)): particularly effective
- Rooting rate (%) For first one month ([2]; IBA 0.1 mg/l): 0.0%
- Rooting rate (%) For second one month ([2]; IBA 0.1 mg/l): 0.0%
- Rooting rate (%) For third one month ([2]; IBA 0.1 mg/l): 0.0%
- Withering rate (%) For first one month ([2]; IBA 0.1 mg/l): 7.7%
- Withering rate (%) For second one month ([2]; IBA 0.1 mg/l): 73.1%
- Withering rate (%) For third one month ([2]; IBA 0.1 mg/l): 84.6%
- Rooting rate (%) For first one month ([2]; IBA 1.0 mg/l): 0.0%
- Rooting rate (%) For second one month ([2]; IBA 1.0 mg/l): 10.0%
- Rooting rate (%) For third one month ([2]; IBA 1.0 mg/l): 40.0%
- Withering rate (%) For first one month ([2]; IBA 1.0 mg/l): 0.0%
- Withering rate (%) For second one month ([2]; IBA 1.0 mg/l): 30.0%
- Withering rate (%) For third one month ([2]; IBA 1.0 mg/l): 50.0%
- Rooting rate (%) For first one month ([2]; IBA 2.0 mg/l): 0.0%
- Rooting rate (%) For second one month ([2]; IBA 2.0 mg/l): 10.0%
- Rooting rate (%) For third one month ([2]; IBA 2.0 mg/l): 40.0%
- Withering rate (%) For first one month ([2]; IBA 2.0 mg/l): 0.0%
- Withering rate (%) For second one month ([2]; IBA 2.0 mg/l): 30.0%
- Withering rate (%) For third one month ([2]; IBA 2.0 mg/l): 40.0%
- Rooting rate (%) For first one month ([2]; IBA 2.5 mg/l): 0.0%
- Rooting rate (%) For second one month ([2]; IBA 2.5 mg/l): 40.0%
- Rooting rate (%) For third one month ([2]; IBA 2.5 mg/l): 70.0%
- Withering rate (%) For first one month ([2]; IBA 2.5 mg/l): 0.0%
- Withering rate (%) For second one month ([2]; IBA 2.5 mg/l): 0.0%
- Withering rate (%) For third one month ([2]; IBA 2.5 mg/l): 20.0%
- Rooting rate (%) For first one month ([2]; IBA 3.0 mg/l): 0.0%
- Rooting rate (%) For second one month ([2]; IBA 3.0 mg/l): 10.0%
- Rooting rate (%) For third one month ([2]; IBA 3.0 mg/l): 30.0%
- Withering rate (%) For first one month ([2]; IBA 3.0 mg/l): 0.0%
- Withering rate (%) For second one month ([2]; IBA 3.0 mg/l): 50.0%
- Withering rate (%) For third one month ([2]; IBA 3.0 mg/l): 50.0%
- Rooting rate (%) For first one month ([2]; IBA 4.0 mg/l): 0.0%
- Rooting rate (%) For second one month ([2]; IBA 4.0 mg/l): 0.0%
- Rooting rate (%) For third one month ([2]; IBA 4.0 mg/l): 0.0%
- Withering rate (%) For first one month ([2]; IBA 4.0 mg/l): 20.0%
- Withering rate (%) For second one month ([2]; IBA 4.0 mg/l): 60.0%
- Withering rate (%) For third one month ([2]; IBA 4.0 mg/l): 80.0%
- Rooting rate (%) For first one month ([2]; IBA 5.0 mg/l): 0.0%
- Rooting rate (%) For second one month ([2]; IBA 5.0 mg/l): 0.0%
- Rooting rate (%) For third one month ([2]; IBA 5.0 mg/l): 0.0%
- Withering rate (%) For first one month ([2]; IBA 5.0 mg/l): 40.0%
- Withering rate (%) For second one month ([2]; IBA 5.0 mg/l): 50.0%
- Withering rate (%) For third one month ([2]; IBA 5.0 mg/l): 100.0%
- Rooting rate (%) For first one month ([2]; IBA 10.0 mg/l): 0.0%
- Rooting rate (%) For second one month ([2]; IBA 10.0 mg/l): 0.0%
- Rooting rate (%) For third one month ([2]; IBA 10.0 mg/l): 0.0%
- Withering rate (%) For first one month ([2]; IBA 10.0 mg/l): 50.0%
- Withering rate (%) For second one month ([2]; IBA 10.0 mg/l): 100.0%
- Withering rate (%) For third one month ([2]; IBA 10.0 mg/l): 100.0%
- single shoots rooted ([2]; procedure (3), 3 months after the start of culturing, 2.5 mg/l of IBA): 70.0%
- Rooting rate (%) For first one month ([3]; IBA 0.1 mg/l): 0.0%
- Rooting rate (%) For second one month ([3]; IBA 0.1 mg/l): 0.0%
- Rooting rate (%) For third one month ([3]; IBA 0.1 mg/l): 0.0%
- Withering rate (%) For first one month ([3]; IBA 0.1 mg/l): 0.0%
- Withering rate (%) For second one month ([3]; IBA 0.1 mg/l): 69.2%
- Withering rate (%) For third one month ([3]; IBA 0.1 mg/l): 84.6%
- Rooting rate (%) For first one month ([3]; IBA 1.0 mg/l): 0.0%
- Rooting rate (%) For second one month ([3]; IBA 1.0 mg/l): 3.8%
- Rooting rate (%) For third one month ([3]; IBA 1.0 mg/l): 3.8%
- Withering rate (%) For first one month ([3]; IBA 1.0 mg/l): 0.0%
- Withering rate (%) For second one month ([3]; IBA 1.0 mg/l): 46.2%
- Withering rate (%) For third one month ([3]; IBA 1.0 mg/l): 73.1%
- Rooting rate (%) For first one month ([3]; IBA 2.0 mg/l): 0.0%
- Rooting rate (%) For second one month ([3]; IBA 2.0 mg/l): 3.8%
- Rooting rate (%) For third one month ([3]; IBA 2.0 mg/l): 11.5%
- Withering rate (%) For first one month ([3]; IBA 2.0 mg/l): 0.0%
- Withering rate (%) For second one month ([3]; IBA 2.0 mg/l): 30.8%
- Withering rate (%) For third one month ([3]; IBA 2.0 mg/l): 76.9%
- Rooting rate (%) For first one month ([3]; IBA 2.5 mg/l): 0.0%
- Rooting rate (%) For second one month ([3]; IBA 2.5 mg/l): 13.3%
- Rooting rate (%) For third one month ([3]; IBA 2.5 mg/l): 16.7%
- Withering rate (%) For first one month ([3]; IBA 2.5 mg/l): 0.0%
- Withering rate (%) For second one month ([3]; IBA 2.5 mg/l): 26.7%
- Withering rate (%) For third one month ([3]; IBA 2.5 mg/l): 66.7%
- Rooting rate (%) For first one month ([3]; IBA 3.0 mg/l): 0.0%
- Rooting rate (%) For second one month ([3]; IBA 3.0 mg/l): 3.7%
- Rooting rate (%) For third one month ([3]; IBA 3.0 mg/l): 11.1%
- Withering rate (%) For first one month ([3]; IBA 3.0 mg/l): 0.0%
- Withering rate (%) For second one month ([3]; IBA 3.0 mg/l): 55.6%
- Withering rate (%) For third one month ([3]; IBA 3.0 mg/l): 70.4%
- Rooting rate (%) For first one month ([3]; IBA 4.0 mg/l): 0.0%
- Rooting rate (%) For second one month ([3]; IBA 4.0 mg/l): 0.0%
- Rooting rate (%) For third one month ([3]; IBA 4.0 mg/l): 0.0%
- Withering rate (%) For first one month ([3]; IBA 4.0 mg/l): 10.3%
- Withering rate (%) For second one month ([3]; IBA 4.0 mg/l): 58.6%
- Withering rate (%) For third one month ([3]; IBA 4.0 mg/l): 96.6%
- Rooting rate (%) For first one month ([3]; IBA 5.0 mg/l): 0.0%
- Rooting rate (%) For second one month ([3]; IBA 5.0 mg/l): 0.0%
- Rooting rate (%) For third one month ([3]; IBA 5.0 mg/l): 0.0%
- Withering rate (%) For first one month ([3]; IBA 5.0 mg/l): 46.2%
- Withering rate (%) For second one month ([3]; IBA 5.0 mg/l): 76.9%
- Withering rate (%) For third one month ([3]; IBA 5.0 mg/l): 100.0%
- Rooting rate (%) For first one month ([3]; IBA 10.0 mg/l): 0.0%
- Rooting rate (%) For second one month ([3]; IBA 10.0 mg/l): 0.0%
- Rooting rate (%) For third one month ([3]; IBA 10.0 mg/l): 0.0%
- Withering rate (%) For first one month ([3]; IBA 10.0 mg/l): 65.4%
- Withering rate (%) For second one month ([3]; IBA 10.0 mg/l): 80.8%
- Withering rate (%) For third one month ([3]; IBA 10.0 mg/l): 100.0%
